Assay results published in article PMC7914897, “Cytotoxic Potential of a-Azepano- and 3-Amino-3,4-SeCo-Triterpenoids” (International Journal of Molecular Sciences, 2021).
Like-named read-outs stand apart in the source and are kept apart here.

Tests used:
Leukemia subpanel = experiment: cells; details: Homo sapiens
OVCAR-3 (Ovarian cancer) = experiment: cells; details: Homo sapiens, OVCAR-3
Renal Cancer subpanel = experiment: NCI-60 screen, subpanel; details: Homo sapiens
[1] = tested on: A549/ATCC (NSC lung cancer); experiment: NCI-60 screen (SRB, 48 h); details: Homo sapiens, A549
HOP-62 (NSC lung cancer) = experiment: NCI-60 screen (SRB, 48 h); details: Homo sapiens, HOP-62
[2] = tested on: NCI-H226 (NSC lung cancer); experiment: NCI-60 screen (SRB, 48 h); details: Homo sapiens, NCI-H226
[3] = tested on: NCI-H23 (NSC lung cancer); experiment: NCI-60 screen (SRB, 48 h); details: Homo sapiens
[4] = tested on: NCI-H322M (NSC lung cancer); experiment: NCI-60 screen (SRB, 48 h); details: Homo sapiens
[5] = tested on: NCI-H522 (NSC lung cancer); experiment: NCI-60 screen (SRB, 48 h); details: Homo sapiens
COLO 205 (Colon cancer) = experiment: NCI-60 screen (SRB, 48 h); details: Homo sapiens
HCC-2998 (Colon cancer) = experiment: NCI-60 screen (SRB, 48 h); details: Homo sapiens, HCC 2998
HCT-15 (Colon cancer) = experiment: NCI-60 screen (SRB, 48 h); details: Homo sapiens
SF-268 (CNS cancer) = experiment: NCI-60 screen (SRB, 48 h); details: Homo sapiens, SF-268
SNB-19 (CNS cancer) = experiment: NCI-60 screen (SRB, 48 h); details: Homo sapiens
SK-MEL-5 (Melanoma) = experiment: NCI-60 screen (SRB, 48 h); details: Homo sapiens
UACC-257 (Melanoma) = experiment: NCI-60 screen (SRB, 48 h); details: Homo sapiens
UACC-62 (Melanoma) = experiment: NCI-60 screen (SRB, 48 h); details: Homo sapiens
IGROV1 (Ovarian cancer) = experiment: NCI-60 screen (SRB, 48 h); details: Homo sapiens
OVCAR-5 (Ovarian cancer) = experiment: NCI-60 screen (SRB, 48 h); details: Homo sapiens, OVCAR-5
OVCAR-8 (Ovarian cancer) = experiment: NCI-60 screen (SRB, 48 h); details: Homo sapiens, OVCAR-8
CAKI-1 (Renal cancer) = experiment: NCI-60 screen (SRB, 48 h); details: Homo sapiens, CAKI-1
TK-10 (Renal cancer) = experiment: NCI-60 screen (SRB, 48 h); details: Homo sapiens
PC-3 (Prostate cancer) = experiment: NCI-60 screen (SRB, 48 h); details: Homo sapiens, PC-3
DU-145 (Prostate cancer) = experiment: NCI-60 screen (SRB, 48 h); details: Homo sapiens
[6] = tested on: MDA-MB-31/ATCC (Breast cancer); experiment: NCI-60 screen (SRB, 48 h); details: Homo sapiens
HS 578T (Breast cancer) = experiment: NCI-60 screen (SRB, 48 h); details: Homo sapiens
[7] = tested on: panel of approximately 60 cancer cell lines; experiment: NCI-60 screen (SRB, 48 h), full panel

**Q.** `C[C@H]1[C@H](C)CC[C@]2(C(=O)Nc3ccc4ncccc4c3)CC[C@]3(C)C(=CC[C@@H]4[C@@]5(C)CCCNC(C)(C)[C@@H]5CC[C@]43C)[C@H]12` [Compound 14] was tested. Which IC (TGI) (Leukemia subpanel; 48 h, read-out: TGI MG_MID) did it give?
**A.** 3.63 µM

**Q.** What about the GI50 (Leukemia subpanel; read-out: GI50 MG_MID) of the same compound?
**A.** 1.58 µM

**Q.** What about the GI50 (OVCAR-3 (Ovarian cancer)) of the same compound?
**A.** 1.81 µM

**Q.** What about the IC (TGI) (Renal Cancer subpanel; 48 h, read-out: TGI MG_MID) of the same compound?
**A.** 3.24 µM

**Q.** And the GI50 (Renal Cancer subpanel; read-out: GI50 MG_MID)?
**A.** 1.66 µM

**Q.** What about the CC50 (Renal Cancer subpanel; read-out: LC50 MG_MID) of the same compound?
**A.** 5.6 µM

**Q.** What about the GI50 [1] of the same compound?
**A.** 1.81 µM

**Q.** What about the GI50 (HOP-62 (NSC lung cancer)) of the same compound?
**A.** 1.76 µM

**Q.** And the GI50 [2]?
**A.** 2.1 µM

**Q.** And the GI50 ([3]; NCI-H23)?
**A.** 1.76 µM

**Q.** What about the IC (TGI) ([3]; NCI-H23, 48 h, read-out: TGI) of the same compound?
**A.** 3.39 µM

**Q.** And the GI50 [4]?
**A.** 1.72 µM

**Q.** And the IC (TGI) ([4]; 48 h, read-out: TGI)?
**A.** 3.11 µM

**Q.** And the GI50 ([5]; NCI-H522)?
**A.** 1.75 µM

**Q.** And the IC (TGI) ([5]; NCI-H522, 48 h, read-out: TGI)?
**A.** 3.33 µM

**Q.** What about the GI50 (COLO 205 (Colon cancer); COLO 205) of the same compound?
**A.** 1.75 µM

**Q.** And the IC (TGI) (COLO 205 (Colon cancer); COLO 205, 48 h, read-out: TGI)?
**A.** 3.59 µM

**Q.** And the GI50 (HCC-2998 (Colon cancer))?
**A.** 1.4 µM

**Q.** And the GI50 (HCT-15 (Colon cancer); HCT-15)?
**A.** 1.59 µM

**Q.** And the IC (TGI) (HCT-15 (Colon cancer); HCT-15, 48 h, read-out: TGI)?
**A.** 3.15 µM

**Q.** And the GI50 (SF-268 (CNS cancer))?
**A.** 1.73 µM

**Q.** And the GI50 (SNB-19 (CNS cancer); SNB-19)?
**A.** 1.85 µM

**Q.** And the IC (TGI) (SNB-19 (CNS cancer); SNB-19, 48 h, read-out: TGI)?
**A.** 3.4 µM

**Q.** And the GI50 (SK-MEL-5 (Melanoma); SK-MEL-5)?
**A.** 1.85 µM

**Q.** And the IC (TGI) (SK-MEL-5 (Melanoma); SK-MEL-5, 48 h, read-out: TGI)?
**A.** 3.32 µM

**Q.** And the CC50 (SK-MEL-5 (Melanoma); SK-MEL-5, read-out: LC50)?
**A.** 5.94 µM

**Q.** And the GI50 (UACC-257 (Melanoma); UACC-257)?
**A.** 1.87 µM

**Q.** What about the IC (TGI) (UACC-257 (Melanoma); UACC-257, 48 h, read-out: TGI) of the same compound?
**A.** 3.54 µM

**Q.** And the GI50 (UACC-62 (Melanoma); UACC-62)?
**A.** 1.74 µM

**Q.** What about the IC (TGI) (UACC-62 (Melanoma); UACC-62, 48 h, read-out: TGI) of the same compound?
**A.** 3.23 µM

**Q.** What about the CC50 (UACC-62 (Melanoma); UACC-62, read-out: LC50) of the same compound?
**A.** 6 µM

**Q.** And the GI50 (IGROV1 (Ovarian cancer); IGROV-1)?
**A.** 1.7 µM

**Q.** What about the IC (TGI) (IGROV1 (Ovarian cancer); IGROV-1, 48 h, read-out: TGI) of the same compound?
**A.** 3.37 µM

**Q.** And the CC50 (IGROV1 (Ovarian cancer); IGROV-1, read-out: LC50)?
**A.** 6.69 µM

**Q.** What about the GI50 (OVCAR-5 (Ovarian cancer)) of the same compound?
**A.** 1.68 µM

**Q.** And the GI50 (OVCAR-8 (Ovarian cancer))?
**A.** 1.86 µM

**Q.** What about the GI50 (CAKI-1 (Renal cancer)) of the same compound?
**A.** 1.56 µM

**Q.** What about the GI50 (TK-10 (Renal cancer); TK-10) of the same compound?
**A.** 1.69 µM

**Q.** And the IC (TGI) (TK-10 (Renal cancer); TK-10, 48 h, read-out: TGI)?
**A.** 3.2 µM

**Q.** What about the GI50 (PC-3 (Prostate cancer)) of the same compound?
**A.** 1.76 µM

**Q.** And the GI50 (DU-145 (Prostate cancer); DU-145)?
**A.** 1.76 µM

**Q.** And the IC (TGI) (DU-145 (Prostate cancer); DU-145, 48 h, read-out: TGI)?
**A.** 3.28 µM

**Q.** And the GI50 [6]?
**A.** 1.8 µM

**Q.** And the IC (TGI) ([6]; 48 h, read-out: TGI)?
**A.** 3.4 µM

**Q.** And the GI50 (HS 578T (Breast cancer))?
**A.** 1.96 µM

**Q.** What about the “Positive Cytostatic Effect (cell lines with percent growth 0 to 50 / total)” value ([7]; 1 dose 10 µM) of the same compound?
**A.** 3/59

**Q.** What about the “Positive Cytotoxic Effect (cell lines with percent growth < 0 / total)” value ([7]; 1 dose 10 µM) of the same compound?
**A.** 42/59

**Q.** What about the “number of cancer cell lines the compound was active against” value ([7]; 1 dose 10 µM) of the same compound?
**A.** 45 cell lines

**Q.** What about the activity at 10 µM ([7]; Homo sapiens, 48 h, read-out: Mean Growth, %) of the same compound?
**A.** -27.9%

**Q.** And the activity at 10 µM ([7]; Homo sapiens, 48 h, read-out: Range of Growth, %)?
**A.** -100 to 110%

**Q.** And the IC (TGI) ([7]; Homo sapiens, 48 h, read-out: TGI MG_MID60, average over all cell lines)?
**A.** 3.35 µM

**Q.** And the GI50 ([7]; Homo sapiens, read-out: GI50 MG_MID60)?
**A.** 1.72 µM

**Q.** What about the GI50 ([7]; Homo sapiens, read-out: GI50 against all human tumor cell lines) of the same compound?
**A.** < 3 µM

**Q.** What about the CC50 ([7]; Homo sapiens, read-out: LC50 MG_MID60, average over all cell lines) of the same compound?
**A.** 6.52 µM
